According to ChEMBL document CHEMBL1201862, “PubChem BioAssay data set” (2004):
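Briefly, cells in 96-well plates were exposed to five compound concentrations for 48 h, and endpoints were estimated by linear interpolation. Abbreviation: GI50, concentration required for 50% inhibition of growth.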 Active and inactive are the calls of the source. Cut-off read from the data, not from the text of the source: active = GI50 up to about 1.1 µM and inactive = higher.

Legend:
Assay in all cases: growth of human tumour cells (NCI), 48 h
[1] = tested on: UACC-257
[2] = tested on: EKVX
[3] = tested on: UACC-62
[4] = tested on: HL-60
[5] = tested on: OVCAR-3
[6] = tested on: OVCAR-5
[7] = tested on: SK-MEL-28
[8] = tested on: Hs-578T
[9] = tested on: OVCAR-4
[10] = tested on: LOX IMVI
[11] = tested on: K562
[12] = tested on: M14
[13] = tested on: Malme-3M
[14] = tested on: BT-549
[15] = tested on: NCI-H23
[16] = tested on: SNB-19
[17] = tested on: NCI-H460
[18] = tested on: UO-31
[19] = tested on: RPMI-8226
[20] = tested on: IGROV-1
[21] = tested on: HCT-116
[22] = tested on: COLO 205
[23] = tested on: HCT-15
[24] = tested on: SR
[25] = tested on: SN12C
[26] = tested on: SNB-75
[27] = tested on: KM12
[28] = tested on: HOP-62
[29] = tested on: MCF7
[30] = tested on: MDA-MB-231
[31] = tested on: PC-3
[32] = tested on: U-251
[33] = tested on: HOP-92
[34] = tested on: ACHN
[35] = tested on: 786-0
[36] = tested on: SK-MEL-5
[37] = tested on: A498
[38] = tested on: SW-620
[39] = tested on: SF-295
[40] = tested on: DU-145
[41] = tested on: OVCAR-8
[42] = tested on: HT-29
[43] = tested on: SF-268
[44] = tested on: SF-539
[45] = tested on: T47D
[46] = tested on: NCI-H226
[47] = tested on: A549
[48] = tested on: MDA-MB-435
[49] = tested on: CCRF-CEM
[50] = tested on: SK-MEL-2
[51] = tested on: RXF 393
[52] = tested on: SK-OV-3
[53] = tested on: TK-10
[54] = tested on: MOLT-4
[55] = tested on: MDA-N
[56] = tested on: NCI/ADR-RES
[57] = tested on: CAKI-1

With `CC(C)CCCC(C)[C@H]1CCC2[C@@H]3CCC4Cc5nc6c(nc5C[C@]4(C)C3CC[C@@]21C)CC1CC[C@@H]2C(CC[C@@]3(C)C2CC[C@@H]3O)[C@@]1(C)C6` (stereo not given in full) the GI50 [1] was > 100 µM (inactive), the GI50 [2] was > 100 µM (inactive) and the GI50 [3] was > 100 µM (inactive). The GI50 [4] was > 100 µM (inactive), the GI50 [5] was > 100 µM (inactive) and the GI50 [6] was > 100 µM (inactive). For the same compound, the GI50 [7] was > 100 µM (inactive), the GI50 [8] was > 100 µM (inactive) and the GI50 [9] was > 100 µM (inactive). For the same compound, the GI50 [10] was > 100 µM (inactive), the GI50 [11] was > 100 µM (inactive) and the GI50 [12] was > 100 µM (inactive). The GI50 [13] was > 100 µM (inactive), the GI50 [14] was > 100 µM (inactive) and the GI50 [15] was > 100 µM (inactive). For the same compound, the GI50 [16] was > 100 µM (inactive), the GI50 [17] was > 100 µM (inactive) and the GI50 [18] was > 100 µM (inactive). The GI50 [19] was > 100 µM (inactive), the GI50 [20] was > 100 µM (inactive) and the GI50 [21] was > 100 µM (inactive). The GI50 [22] was > 100 µM (inactive), the GI50 [23] was greater than 100 µM and the GI50 [24] was > 100 µM (inactive). The GI50 [25] was > 100 µM (inactive), the GI50 [26] was 62.2 µM (inactive) and the GI50 [27] was > 100 µM (inactive). For the same compound, the GI50 [28] was > 100 µM (inactive), the GI50 [29] was > 100 µM (inactive) and the GI50 [30] was > 100 µM (inactive). For the same compound, the GI50 [31] was > 100 µM (inactive), the GI50 [32] was > 100 µM (inactive) and the GI50 [33] was > 100 µM (inactive). For the same compound, the GI50 [34] was > 100 µM (inactive), the GI50 [35] was 87.1 µM (inactive) and the GI50 [36] was > 100 µM (inactive). The GI50 [37] was > 100 µM (inactive), the GI50 [38] was > 100 µM (inactive) and the GI50 [39] was > 100 µM (inactive). For the same compound, the GI50 [40] was > 100 µM (inactive), the GI50 [41] was > 100 µM (inactive) and the GI50 [42] was > 100 µM (inactive). The GI50 [43] was > 100 µM (inactive), the GI50 [44] was > 100 µM (inactive) and the GI50 [45] was > 100 µM (inactive). The GI50 [46] was > 100 µM (inactive), the GI50 [47] was > 100 µM (inactive) and the GI50 [48] was > 100 µM (inactive). For the same compound, the GI50 [49] was > 100 µM (inactive), the GI50 [50] was > 100 µM (inactive) and the GI50 [51] was > 100 µM (inactive). The GI50 [52] was > 100 µM (inactive), the GI50 [53] was > 100 µM (inactive) and the GI50 [54] was > 100 µM (inactive). The GI50 [55] was > 100 µM (inactive) and the GI50 [56] was > 100 µM (inactive).
`Cc1nc2c(=O)[nH]ncc2[nH]1` was tested, and the GI50 [1] was > 100 µM (inactive), the GI50 [2] was > 100 µM (inactive) and the GI50 [3] was > 100 µM (inactive). The GI50 [4] was 64 µM (inactive), the GI50 [5] was > 100 µM (inactive) and the GI50 [6] was > 100 µM (inactive). The GI50 [7] was > 100 µM (inactive), the GI50 [8] was > 100 µM (inactive) and the GI50 [11] was > 100 µM (inactive). For the same compound, the GI50 [12] was > 100 µM (inactive), the GI50 [14] was > 100 µM (inactive) and the GI50 [15] was > 100 µM (inactive). For the same compound, the GI50 [16] was > 100 µM (inactive), the GI50 [17] was > 100 µM (inactive) and the GI50 [18] was > 100 µM (inactive). The GI50 [19] was > 100 µM (inactive), the GI50 [20] was > 100 µM (inactive) and the GI50 [21] was > 100 µM (inactive). The GI50 [22] was > 100 µM (inactive), the GI50 [23] was greater than 100 µM and the GI50 [24] was > 100 µM (inactive). For the same compound, the GI50 [25] was > 100 µM (inactive), the GI50 [26] was 0.968 µM (active) and the GI50 [27] was 84.1 µM (inactive). The GI50 [28] was > 100 µM (inactive), the GI50 [29] was > 100 µM (inactive) and the GI50 [30] was > 100 µM (inactive). The GI50 [57] was > 100 µM (inactive), the GI50 [31] was > 100 µM (inactive) and the GI50 [32] was > 100 µM (inactive). For the same compound, the GI50 [34] was > 100 µM (inactive), the GI50 [35] was > 100 µM (inactive) and the GI50 [36] was > 100 µM (inactive). For the same compound, the GI50 [37] was > 100 µM (inactive), the GI50 [38] was > 100 µM (inactive) and the GI50 [39] was > 100 µM (inactive). For the same compound, the GI50 [40] was > 100 µM (inactive), the GI50 [41] was > 100 µM (inactive) and the GI50 [42] was > 100 µM (inactive). The GI50 [43] was > 100 µM (inactive), the GI50 [44] was > 100 µM (inactive) and the GI50 [45] was > 100 µM (inactive). For the same compound, the GI50 [46] was > 100 µM (inactive), the GI50 [47] was > 100 µM (inactive) and the GI50 [48] was > 100 µM (inactive). For the same compound, the GI50 [49] was > 100 µM (inactive), the GI50 [50] was > 100 µM (inactive) and the GI50 [51] was > 100 µM (inactive). The GI50 [53] was > 100 µM (inactive), the GI50 [54] was > 100 µM (inactive) and the GI50 [55] was > 100 µM (inactive). For the same compound, the GI50 [56] was > 100 µM (inactive).
With `Cc1ccc(Nc2n[nH]c(NS(=O)(=O)c3cc(C(=O)Nc4ccc(Cl)cc4)c(Cl)cc3S)n2)cc1` the GI50 [1] was > 100 µM (inactive), the GI50 [2] was 35 µM (inactive) and the GI50 [3] was > 100 µM (inactive). The GI50 [4] was 33.7 µM (inactive), the GI50 [5] was > 100 µM (inactive) and the GI50 [6] was > 100 µM (inactive). For the same compound, the GI50 [7] was > 100 µM (inactive), the GI50 [8] was 84.9 µM (inactive) and the GI50 [9] was > 100 µM (inactive). For the same compound, the GI50 [10] was 48.4 µM (inactive), the GI50 [11] was > 100 µM (inactive) and the GI50 [12] was > 100 µM (inactive). For the same compound, the GI50 [13] was 50.5 µM (inactive), the GI50 [14] was > 100 µM (inactive) and the GI50 [15] was > 100 µM (inactive). For the same compound, the GI50 [16] was > 100 µM (inactive), the GI50 [17] was 36 µM (inactive) and the GI50 [18] was > 100 µM (inactive). The GI50 [19] was > 100 µM (inactive), the GI50 [20] was > 100 µM (inactive) and the GI50 [21] was > 100 µM (inactive). For the same compound, the GI50 [22] was > 100 µM (inactive), the GI50 [23] was greater than 100 µM and the GI50 [24] was > 100 µM (inactive). For the same compound, the GI50 [25] was > 100 µM (inactive), the GI50 [26] was > 100 µM (inactive) and the GI50 [27] was > 100 µM (inactive). The GI50 [28] was > 100 µM (inactive), the GI50 [29] was > 100 µM (inactive) and the GI50 [30] was > 100 µM (inactive). For the same compound, the GI50 [57] was > 100 µM (inactive), the GI50 [31] was > 100 µM (inactive) and the GI50 [32] was 54.8 µM (inactive). For the same compound, the GI50 [34] was > 100 µM (inactive), the GI50 [36] was > 100 µM (inactive) and the GI50 [38] was > 100 µM (inactive). For the same compound, the GI50 [39] was > 100 µM (inactive), the GI50 [40] was > 100 µM (inactive) and the GI50 [41] was > 100 µM (inactive). The GI50 [42] was 89.9 µM (inactive), the GI50 [43] was > 100 µM (inactive) and the GI50 [44] was > 100 µM (inactive). The GI50 [45] was 63.2 µM (inactive), the GI50 [47] was 99.8 µM (inactive) and the GI50 [48] was > 100 µM (inactive). For the same compound, the GI50 [49] was > 100 µM (inactive), the GI50 [51] was 62.2 µM (inactive) and the GI50 [52] was > 100 µM (inactive). The GI50 [53] was > 100 µM (inactive), the GI50 [54] was > 100 µM (inactive) and the GI50 [55] was > 100 µM (inactive). The GI50 [56] was > 100 µM (inactive).
